Key:
Hec59 + Chr2 = experiment: Cell viability assay (resazurin); assay type: cell-based; conditions: 120 h, Cancer, endometrioid adenocarcinoma, five day incubation
Method: (§1) A dilution series of compound or vehicle are transferred to 96-well plates. Cells are seeded into the plate (500-10,000 cells/well) in suitable media and incubated for five days in 5% CO2 at 37° C. Thereafter, resazurin (diluted in suitable medium or PBS) are added to a final concentration 10 μg/ml resazurin at 37° C. for 2-4 hours before measuring the fluorescence (Ex544/Em590), essentially as described (Riss, Terry L. et al., “Cell Viability Assays.” In Assay Guidance Manual, ed. G. Sitta Sittampalam, et al. Bethesda (Md.): Eli Lilly & Company and the National Center for Advancing Translational Sciences (2004) http://www.ncbi.nlm.nih.gov/books/NBK144065/).
(§2) The compounds to be tested are nano-dispensed in duplicate in 11 concentrations, directly in 384-well cell plates, with a final DMSO concentration<1%. Cells are seeded in cell plates, pre-dispensed with compounds (200-2500 cells/well in 50 μl). After three or five days culture in 5% CO2, 37° C., resazurin diluted in PBS is added, 10 μl/well, to a final concentration of 10 μg/ml and cells are incubated 2-4 hours before measuring fluorescence (Ex544/Em590), as described (ibid.). Results obtained for selected example compounds described herein on cancer- and non-transformed cell lines are provided in the table below (Table 3) and summarized in FIG. 1. Where indicated, combination indexes was measured with CompuSyn software (www.compusyn.com) by the method of Chou-Talalay (Chou, Ting-Chao., Cancer Research, 70(2), 440-46 (2010)).

Hec59 = experiment: Cell viability assay (resazurin); assay type: cell-based; conditions: 120 h, Cancer, endometrioid adenocarcinoma, five day incubation
Method: as §1, §2

K562 = experiment: Cell viability assay (resazurin); assay type: cell-based; conditions: Homo sapiens, 120 h, Cancer, Chronic Myelogenous Leukemia, five day incubation
Method: as §1, §2

SW1271 = experiment: Cell viability assay (resazurin); assay type: cell-based; conditions: 120 h, Cancer, Small Cell Lung Carcinoma, five day incubation
Method: as §1, §2

THP1 = experiment: Cell viability assay (resazurin); assay type: cell-based; conditions: Homo sapiens, THP-1, 120 h, Cancer, Acute Monocytic Leukemia, five day incubation
Method: as §1, §2

MEF Ogg1 (−/−) = experiment: Cell viability assay (resazurin); assay type: cell-based; conditions: 120 h, Normal, mouse embryonic fibroblast, five day incubation
Method: A dilution series of compound or vehicle are transferred to 96-well plates. Cells are seeded into the plate (500-10,000 cells/well) in suitable media and incubated for five days in 5% CO2 at 37° C.
The compounds to be tested are nano-dispensed in duplicate in 11 concentrations, directly in 384-well cell plates, with a final DMSO concentration<1%.

MLE12 cells = experiment: Cell viability assay in MLE12 cells (resazurin); assay type: cell-based, mouse; conditions: Mus musculus, MLE12, 24 h, TNF-α 20 ng/ml, resazurin added after 24 hours culture
Summary of the method: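 MLE12 cells (7500 cells/well) were seeded onto 11-point duplicate compound dose-responses, with TNF-α (final 20 ng/ml) added after 1 hour at 37° C. After 24 hours, resazurin was added for 6 hours and resorufin fluorescence read (ex544 nm/em595 nm). EC50 values were calculated by curve fitting.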

CCL2 = experiment: Mouse CCL2 assay in MLE12 cells; assay type: cell-based; conditions: Mus musculus, MLE12, 30 h, MLE12 cells; TNF-α 20 ng/ml; supernatant after 30 hours; HTRF; read-out: CCL2 (EC50)
Summary of the method: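 MLE12 mouse lung epithelial cells (7500/well, DMEM/F12 with 5% FBS) preincubated 1 h with compounds (6-point dose-response, duplicate), then stimulated with TNF-α (final 20 ng/ml) for 30 h at 37 °C. Secreted CCL2 measured by HTRF sandwich immunoassay (Ex330/Em620, 665 nm) against standard curve; IC50 from delta ratios.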

Compound	EC50 (Hec59 + Chr2) [µM]	EC50 (Hec59) [µM]	EC50 (K562) [µM]	EC50 (SW1271) [µM]	EC50 (THP1) [µM]	EC50 (MEF Ogg1 (−/−)) [µM]	IC50 (MLE12 cells) [µM]	EC50 (CCL2) [µM]
O=C(Nc1ccc(I)cc1)N1CCC(n2c(=O)[nH]c3c(Br)cccc32)CC1 [Example 13, 4-(4-Bromo-2-oxo-2,3-dihydro-1H-1,3-benzodiazol-1-yl)-N-(4-iodophenyl)piperidine-1-carboxamide]	16	17	20	22	23	48	7.67	18.8
O=C(Nc1ccc(Cl)c(Cl)c1)N1CCC(n2c(=O)[nH]c3c(-c4ccc(CO)nc4)cccc32)CC1 [Example 28, N-(3,4-dichlorophenyl)-4-{4-[6-(hydroxymethyl)pyridin-3-yl]-2-oxo-2,3-dihydro-1H-1,3-benzodiazol-1-yl}piperidine-1-carboxamide]	17	11	21	25	19	46	7.18	17
Cc1cc(NC(=O)N2CCC(n3c(=O)[nH]c4c(Br)cccc43)CC2)ccc1I [Example 50, 4-(4-Bromo-2-oxo-2,3-dihydro-1H-1,3-benzodiazol-1-yl)-N-(4-iodo-3-methylphenyl)piperidine-1-carboxamide]	–	–	–	–	–	34	7.23	15.4
